Measured values taken from ChEMBL document CHEMBL1137195, “SAR and pharmacokinetic studies on phenethylamide inhibitors of the hepatitis C virus NS3/NS4A serine protease” (Bioorg Med Chem Lett, 2004).
Blank lines part the entries; values can stand above or below the molecule they belong to.

How the values were obtained:
[1] = biological target: Hepatitis C virus serine protease, NS3/NS4A (Hepatitis C virus, UniProt A3EZI9+D2K2A8); assay: (§1) Inhibitory activity against Hepatitis C virus Non structural protein 3 serine protease/Non structural protein 4A serine protease; type: protein-complex assay, Hepacivirus hominis
Chain of Hepatitis C virus serine protease, NS3/NS4A (Hepatitis C virus, UniProt A3EZI9+D2K2A8) (D2K2A8 whole entry): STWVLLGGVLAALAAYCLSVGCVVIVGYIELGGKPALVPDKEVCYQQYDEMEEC
Chain of Hepatitis C virus serine protease, NS3/NS4A (Hepatitis C virus, UniProt A3EZI9+D2K2A8) (A3EZI9 whole entry): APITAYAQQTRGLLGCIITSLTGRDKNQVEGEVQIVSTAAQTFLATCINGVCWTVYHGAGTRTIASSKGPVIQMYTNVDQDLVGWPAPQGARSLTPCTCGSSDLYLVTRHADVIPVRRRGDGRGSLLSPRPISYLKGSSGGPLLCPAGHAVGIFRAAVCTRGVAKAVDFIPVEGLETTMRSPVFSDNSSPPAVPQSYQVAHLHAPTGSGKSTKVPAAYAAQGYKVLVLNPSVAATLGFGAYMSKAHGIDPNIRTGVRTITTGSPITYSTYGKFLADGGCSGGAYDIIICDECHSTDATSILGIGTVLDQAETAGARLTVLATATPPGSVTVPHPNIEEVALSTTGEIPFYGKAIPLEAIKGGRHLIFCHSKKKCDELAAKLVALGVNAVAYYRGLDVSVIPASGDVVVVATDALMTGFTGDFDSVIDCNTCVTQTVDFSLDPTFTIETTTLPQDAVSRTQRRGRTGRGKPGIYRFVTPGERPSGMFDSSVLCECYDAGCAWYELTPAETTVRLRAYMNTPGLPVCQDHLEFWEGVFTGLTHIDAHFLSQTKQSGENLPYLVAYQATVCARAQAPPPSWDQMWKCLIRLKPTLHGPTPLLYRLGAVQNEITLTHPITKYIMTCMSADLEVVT

[2] = Volume distribution in rats; type: ADME, organism-based; details: rat, in vivo; read-out: Vdss
[3] = biological target: T1, Hepatitis C virus serine protease, NS3/NS4A (Hepatitis C virus, UniProt D2K2A8+A3EZI9); assay: as §1; type: protein-complex assay, Hepacivirus hominis
T1 sequence (D2K2A8 whole entry): as the sequence (D2K2A8 whole entry) above
T1 sequence (A3EZI9 whole entry): as the sequence (A3EZI9 whole entry) above

[4] = Half life in rats; type: ADME; details: rat, in vivo
[5] = Area under curve in rats; type: ADME; details: rat, in vivo
[6] = plasma clearance in rats; type: ADME, organism-based; details: rat
[7] = biological target: T1, Hepatitis C virus serine protease, NS3/NS4A; assay: Inhibitory activity against Hepatitis C virus Non structural protein 3 serine protease/Non structural protein 4A serine protease: Not active at 50 uM; type: protein-complex assay, Hepacivirus hominis
[8] = Area under curve in rats at 2 mg/kg; type: ADME, organism-based; parameters: dose 2 mg/kg; details: rat, in vivo
[9] = plasma clearance in rats at 2 mg/kg; type: ADME, organism-based; parameters: dose 2 mg/kg; details: rat
[10] = Volume distribution in rats at 2 mg/kg; type: ADME, organism-based; parameters: dose 2 mg/kg; details: rat, in vivo, read-out: Vdss
[11] = Half life in rats at 2 mg/kg; type: ADME, organism-based; parameters: dose 2 mg/kg; details: rat, in vivo

Structure (SMILES): CC(C)COC(=O)N[C@H](C(=O)N1C[C@H](C2CCCCC2)C[C@H]1C(=O)N[C@@H](CC(F)F)C(=O)NCCc1c(F)ccc(OC(C)C(=O)O)c1F)C(C)C (some centres undefined)
- Ki [1]: 0.12 µM

Structure (SMILES): CC(C)COC(=O)N[C@H](C(=O)N1C[C@H](c2ccccc2)C[C@H]1C(=O)N[C@@H](CC(F)F)C(=O)NCCc1cc(/C=C/C(=O)O)ccc1F)C(C)C
- Ki [1]: 0.35 µM

Structure (SMILES): CC(C)COC(=O)N[C@H](C(=O)N[C@@H](CC(C)C)C(=O)N[C@@H](CC(F)F)C(=O)NCCc1c(F)cc(C(=O)O)cc1F)C(C)C
- Ki [1]: 0.4 µM

Structure (SMILES): CC(C)COC(=O)N[C@H](C(=O)N1CC(c2ccccc2)C[C@@H]1C(=O)N[C@@H](CC(F)F)C(=O)NCCc1c(F)cc(C(=O)O)cc1F)C(C)C (some centres undefined)
- Vd [2]: 2.4 L/kg
- Ki [3]: 0.45 µM
- half-life [4]: 72 min
- AUC [5]: 1.3 µM·h
- clearance [6]: 36 mL/min/kg

Structure (SMILES): CC(C)COC(=O)N[C@H](C(=O)N1C[C@H](C2CCCCC2)C[C@H]1C(=O)N[C@@H](CC(F)F)C(=O)NCCc1cccc(NC(C(=O)O)c2ccccc2)c1)C(C)C (some centres undefined)
- Ki [1]: 0.65 µM

Structure (SMILES): COc1ccc2c(O[C@@H]3C[C@@H](C(=O)N[C@@H](CC(F)F)C(=O)NCCc4c(F)cc(C(=O)O)cc4F)N(C(=O)[C@@H](NC(=O)OCC(C)C)C(C)C)C3)cc(-c3csc(NC(C)C)n3)nc2c1
- Ki [1]: 0.02 µM

Structure (SMILES): CC(C)COC(=O)N[C@H](C(=O)N[C@@H](CC(C)C)C(=O)N[C@@H](CC(F)F)C(=O)NCCc1ccc(C(=O)O)cc1Cl)C(C)C
- Ki [1]: 1.2 µM

Structure (SMILES): CC(C)COC(=O)N[C@H](C(=O)N1C[C@H](C2CCCCC2)C[C@H]1C(=O)N[C@@H](CC(F)F)C(=O)NCCc1c(F)ccc(OCC(=O)O)c1F)C(C)C
- Ki [1]: 0.19 µM

Structure (SMILES): CC(C)COC(=O)N[C@H](C(=O)N1C[C@H](C2CCCCC2)C[C@H]1C(=O)N[C@@H](CC(F)F)C(=O)NCCc1c(F)cc(-c2nnn[nH]2)cc1F)C(C)C
- Vd [2]: 0.15 L/kg
- Ki [1]: 0.1 µM
- half-life [4]: 74 min
- AUC [5]: 12.4 µM·h
- clearance [6]: 9 mL/min/kg

Structure (SMILES): CC(C)COC(=O)N[C@H](C(=O)N1C[C@H](C2CCCCC2)C[C@H]1C(=O)N[C@@H](CC(F)F)C(=O)NCCc1c(F)cc(C(=O)NS(C)(=O)=O)cc1F)C(C)C
- Ki [1]: 0.45 µM
- AUC [8]: 0.9 µM·h
- clearance [9]: 46 mL/min/kg
- Vd [10]: 0.8 L/kg
- half-life [11]: 19 min

Structure (SMILES): CC(C)COC(=O)N[C@H](C(=O)N1CC(OCc2ccccc2)C[C@@H]1C(=O)N[C@@H](CC(F)F)C(=O)NCCc1c(F)cc(C(=O)O)cc1F)C(C)C (stereo in doubt; trans)
- Vd [2]: 4.5 L/kg
- Ki [3]: 0.55 µM
- half-life [4]: 48 min
- AUC [5]: 0.4 µM·h
- clearance [6]: 222 mL/min/kg

Structure (SMILES): CC(C)COC(=O)N[C@H](C(=O)N1C[C@H](c2ccccc2)C[C@H]1C(=O)N[C@@H](CC(F)F)C(=O)NCCc1cccc(/C=C/C(=O)O)c1)C(C)C
- Ki [1]: 1.3 µM

Structure (SMILES): CC(C)COC(=O)N[C@H](C(=O)N1C[C@H](c2ccccc2)C[C@H]1C(=O)N[C@@H](CC(F)F)C(=O)NCCc1cccc(/C=C/C(=O)O)c1F)C(C)C
- Ki [1]: 0.4 µM

Continued, values first:

- Ki [1]: 0.03 µM
Structure (SMILES): COc1ccc2c(O[C@@H]3C[C@@H](C(=O)N[C@@H](CC(F)F)C(=O)NCCc4c(F)cc(C(=O)O)cc4F)N(C(=O)C(NC(=O)OCC(C)C)C(C)(C)C)C3)cc(-c3ccccc3)nc2c1 (some centres undefined)

- Ki [1]: 0.5 µM
Structure (SMILES): CCC(Nc1cccc(CCNC(=O)[C@H](CC(F)F)NC(=O)[C@@H]2C[C@@H](C3CCCCC3)CN2C(=O)[C@@H](NC(=O)OCC(C)C)C(C)C)c1)C(=O)O (some centres undefined)

- Ki [7]: Not Active
Structure (SMILES): COC(=O)c1cc(F)c(CCNC(=O)[C@H](CC(F)F)NC(=O)[C@@H]2C[C@@H](C3CCCCC3)CN2C(=O)[C@@H](NC(=O)OCC(C)C)C(C)C)c(F)c1

- Ki [1]: 1 µM
Structure (SMILES): CC(C)COC(=O)N[C@H](C(=O)N1C[C@H](c2ccccc2)C[C@H]1C(=O)N[C@@H](CC(F)F)C(=O)NCCc1cccc(OC(C(=O)O)c2ccccc2)c1)C(C)C (some centres undefined)

- Vd [2]: 0.45 L/kg
- Ki [3]: 0.35 µM
- half-life [4]: 15 min
- AUC [5]: 2.7 µM·h
- clearance [6]: 44 mL/min/kg
Structure (SMILES): CC(C)COC(=O)N[C@H](C(=O)N1CC(C2CCCCC2)C[C@@H]1C(=O)N[C@@H](CC(F)F)C(=O)NCCc1c(F)cc(C(=O)O)cc1F)C(C)C (some centres undefined)

- Ki [3]: 4.5 µM
Structure (SMILES): CC(C)COC(=O)N[C@H](C(=O)N1CC(OCc2ccccc2)C[C@@H]1C(=O)N[C@@H](CC(F)F)C(=O)NCCc1c(F)cc(C(=O)O)cc1F)C(C)C (stereo in doubt; cis)
